Laboratory results taken from patent US9351981B2, “Use of PKC-iota inhibitors for the treatment of breast cancer” (UNIVERSITY OF SOUTH FLORIDA, priority 2007, dated 2016).

How the values were obtained:
[1] = system: MDA-MB-468 breast cancer cells; experiment: Proliferation of MDA-MB-468 breast cancer cells after ICA-1, viable cell count by Trypan blue exclusion; format: cell-based, human; details: vs vehicle control
Procedure: Five thousand cells were plated in T-25 cm^2 flasks. Twenty-four hours post vehicle control or ICA-1 treatment, the number of viable cells was counted by Trypan blue exclusion. Data shown are the mean+/−SD of two independent experiments.
Briefly, MDA-MB-468 breast cancer cells were treated with 0.1 μM or 0.5 μM ICA-1. Cell viability and cell count were determined 24 hours following addition of either vehicle control or ICA-1.

IKK-α/IKK-β = experiment: Phosphorylation of IKK-α/IKK-β; format: cell-based
cancer cells [2] = experiment: Chromatin condensation, DAPI staining of the nucleus; format: cell-based
Excerpt: (§1) In addition, the present inventors have discovered that ICA-1 promotes apoptosis of cancer cells.

cancer cells [3] = experiment: DNA fragmentation, TUNEL assay; format: cell-based
Excerpt: as §1

PKC-ι = target: T1, PKC-ι (Homo sapiens, UniProt P41743); experiment: Inhibition of PKC-ι activity; format: biochemical
T1 sequence (P41743 10-596 limits assumed): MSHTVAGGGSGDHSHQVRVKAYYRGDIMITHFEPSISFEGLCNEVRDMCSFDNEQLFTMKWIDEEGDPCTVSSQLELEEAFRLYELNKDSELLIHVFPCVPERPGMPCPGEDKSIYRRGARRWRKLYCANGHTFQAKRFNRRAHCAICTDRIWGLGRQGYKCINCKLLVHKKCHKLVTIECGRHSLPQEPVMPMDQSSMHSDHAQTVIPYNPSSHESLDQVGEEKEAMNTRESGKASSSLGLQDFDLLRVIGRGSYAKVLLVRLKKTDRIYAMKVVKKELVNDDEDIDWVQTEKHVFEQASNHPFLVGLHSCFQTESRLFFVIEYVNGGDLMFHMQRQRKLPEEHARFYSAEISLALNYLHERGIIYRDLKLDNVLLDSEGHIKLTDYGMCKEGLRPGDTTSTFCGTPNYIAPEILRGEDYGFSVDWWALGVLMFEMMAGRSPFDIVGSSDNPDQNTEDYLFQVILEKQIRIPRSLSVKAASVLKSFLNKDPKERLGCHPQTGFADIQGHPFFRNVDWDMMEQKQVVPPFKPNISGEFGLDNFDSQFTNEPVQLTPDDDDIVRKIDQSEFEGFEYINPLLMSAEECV

For NC(=O)c1ncn(C2CC(COP(=O)(O)O)C(O)C2O)c1N (stereo not drawn) [ICA-1, 1H-imidazole-4-carboxamide,5-amino-1-[2,3-dihydroxy-4-[(phosphonooxy)methyl]cyclopentyl]-,[1R-(1α, 2β, 3β, 4α)]], the “decrease of proliferation of MDA-MB-468 cells” value ([1]; 0.1 μM ICA-1, 24 hours post-treatment) was 77%, the “decrease of proliferation of MDA-MB-468 cells” value ([1]; 0.5 μM ICA-1, 24 hours post-treatment, P=0.05) was 50% and the “phosphorylation of IKK-α/IKK-β” value (IKK-α/IKK-β) was “inhibits the phosphorylation”. The “chromatin condensation in cancer cells” value (cancer cells [2]) was “induced chromatin condensation”, the “DNA fragmentation in cancer cells” value (cancer cells [3]) was “induced DNA fragmentation” and the “activity of PKC-ι” value (PKC-ι) was “potently inhibits”.
